Test results published in patent US7223793B2, “Phenolic acid derivatives and composition for preventing or treating blood lipid level-related diseases comprising the same” (Bionutrigen Co., Ltd., priority 2001, dated 2007).

Key:
[1] = test system: New Zealand White rabbits; assay: Abnormal fat-containing cells in liver of cholesterol-fed rabbits (Experimental Example 3); format: in vivo, rabbit; settings: 1% cholesterol diet, 8 weeks; for Microscopic observation of liver cells (fatty liver): FIGS. 2a-2c; for Grade of proportion of abnormal fat-containing cells in the liver lobules around the central vein: grades 1+(0-25%), 2+(26-50%), 3+(51-75), 4+(76-100%), lovastatin 1 mg/kg or BN30028 0.05 wt %
Experimental: Thereafter, a piece of each organ was fixed in 10% neutral formalin for at least 24 hours. The fixed organ piece was washed sufficiently with tap water, dehydrated stepwise with 70%, 80%, 90% and 100% ethanol and, then, embedded in a paraffin by employing SHANDON, Histocentre 2, USA. The embedded organ piece was sectioned in a thickness of 4 μm with a microtome (LEICA, RM2045, Germany) and stained with H & E (hematoxylin and eosin). The stained organ specimen was made transparent with xylene, mounted with permount, and then observed under a microscope.
In order to quantitatively evaluate the effects of feeding a high cholesterol diet with test substances on liver tissues, the liver specimens prepared in step 3 of the Experimental Example 3 were observed under a microscope with referring to the procedure described by Fogt F. et al. (Fogt F. and Nanji A., Toxicology and Applied Pharmacology, 136, 87-93, 1996) and the procedure described by Keegan et al. (Keegan A., et al., Journal of Hepatology 23: 591-600, 1995). The specimens were classified into for grades: 1+(0-25%), 2+(26-50%), 3+(51-75) and 4+(76-100%) according to the proportion of abnormal fat-containing cells in the liver lobules around the central vein. The significant differences between the test groups were tested by student t-test using Microsoft excel (version 7.0) program

ICR mice = assay: Acute oral toxicity in mice (Experimental Example 5); format: in vivo
Experimental: The toxicity of orally administered BN30028 was tested as follows. Four-week-old specific pathogen-free ICR mice, 12 female mice and 12 male mice, were kept in a room under conditions of 22±3° C., 55±10% relative humidity and 12L/12D photoperiod. The mice was acclimated for one week before using in experiment. Fodder (Cheiljedang Co., mouse and rat fodder) and water were sterilized and freely fed to the mice.
BN30028 was dissolved in 0.5% Tween 80 to a concentration of […] and the solution was orally administered to the mice in an amount of 0.2 mL (1 g/kg), 0.4 mL (2 g/kg) or 0.8 mL (4 g/kg) per 20 g of mouse body weight. The solution was administered once for the 1 g/kg and 2 g/kg groups and twice for the 4 g/kg group. […] Also, on the 7th day, the mice were sacrificed and the internal organs were visually examined. From the day of the administration, the weight changes of the animals were recorded every other day to examine the effect of BN30028 on the reduction of body weight of animals.

Compound | Microscopic observation of liver cells (fatty liver) [1] | Grade of proportion of abnormal fat-containing cells in the liver lobules around the central vein [1] | Proportion of fat-modified cells compared to control ([1]; p<0.05) | Body weight change (ICR mice; oral 1 g/kg, 2 g/kg and 4 g/kg, 7 days after the administration) | LD50 (ICR mice; orally administered, female and male mice)
CC[C@H](C)C(=O)O[C@H]1C[C@@H](C)C=C2C=C[C@H](C)[C@H](CC[C@@H]3C[C@@H](O)CC(=O)O3)[C@H]21 [Lovastatin, reference compound] | many cells containing excessive fat were observed around the central vein | 3.97 ± 0.15 |  |  | 
COC(=O)C(Cc1ccccc1)NC(=O)CCc1ccc(O)c(O)c1 (stereo not shown) [BN30028, 2-[3-(3,4-dihydroxyphenyl)propionylamino]-3-phenyl propionic acid methyl ester] | almost all liver cells of the rabbits administered with BN30028 are of a normal shape | 3.57 ± 0.35 | significantly reduced | normal weight increase without any weight loss | more than 4 g/kg body weight
